# Read-outs that look alike come from different tables or passages of the source.
# Assay: Solubility of sirolimus in aqueous media, solvents and benzyl benzoate/ethanol mixtures
# Format: physicochemical
smiles,measurement,setting,value
"CO[C@H]1C[C@@H]2CC[C@@H](C)[C@@](O)(O2)C(=O)C(=O)N2CCCC[C@H]2C(=O)O[C@H]([C@H](C)C[C@@H]2CC[C@@H](O)[C@H](OC)C2)CC(=O)[C@H](C)/C=C(\C)[C@@H](O)[C@@H](OC)C(=O)[C@H](C)C[C@H](C)/C=C/C=C/C=C/1C [Sirolimus, sirolimus]",solubility,"PBS with 0.1% SDS, aqueous with cosolvent or surfactant or cyclodextrin, PBS, 0.1% SDS, pH 7.4, ambient temperature, read-out: Solubility",0.23 mg/mL
same,solubility,"PBS, pH 7.4, ambient temperature",Not detected
same,solubility,"benzyl benzoate/ethanol mixture, organic solvent or mixture, BB/EtOH Ratio 7, room temperature, read-out: Solubility in Benzyl Benzoate/Ethanol",163 mg/mL
same,solubility,"benzyl benzoate/ethanol mixture, organic solvent or mixture, BB/EtOH Ratio 9, room temperature, read-out: Solubility in Benzyl Benzoate/Ethanol",125 mg/mL
same,solubility,"benzyl benzoate/ethanol mixture, organic solvent or mixture, BB/EtOH Ratio 16, room temperature, read-out: Solubility in Benzyl Benzoate/Ethanol",90.1 mg/mL
same,solubility,"benzyl benzoate/ethanol mixture, organic solvent or mixture, BB/EtOH Ratio 18, room temperature, read-out: Solubility in Benzyl Benzoate/Ethanol",85.6 mg/mL
same,solubility,"oil or lipid, Castor oil, ambient temperature, read-out: Solubility",3 mg/mL
same,solubility,"organic solvent or mixture, Benzyl alcohol (BA), ambient temperature, read-out: Solubility",≥ 387 mg/mL
same,solubility,"organic solvent or mixture, Benzyl benzoate (BB), ambient temperature, read-out: Solubility",37 mg/mL
same,solubility,"organic solvent or mixture, Dimethyl sulfoxide (DMSO), ambient temperature, read-out: Solubility",≥ 243 mg/mL
same,solubility,"organic solvent or mixture, Ethanol (EtOH), ambient temperature, read-out: Solubility",48.5 mg/mL
same,solubility,"organic solvent or mixture, N methyl-2 Pyrrolidone (NMP), ambient temperature, read-out: Solubility",≥ 284 mg/mL
same,solubility,"organic solvent or mixture, PEG 400, ambient temperature, read-out: Solubility",10.7 mg/mL
same,solubility,"organic solvent or mixture, Propylene glycol, ambient temperature, read-out: Solubility",11.8 mg/mL
